“And” between values parts separate entries of the source, which are not always exact repeats. Identical values can stand only once.
Target: T1, human KMO (Homo sapiens, UniProt O15229)
T1 construct: Full length human KMO was amplified by PCR; made in house; host or cells: Spodoptera frugiperda (Sf9) cells, baculovirus; used as purified membranes
Assay: KMO MS Rapidfire functional assay (RapidFire high-throughput mass spectrometry, Method 1 or Method 2)
Format: biochemical
Conditions: in at least one of the MS Rapidfire assays (Method 1 or 2), isolated human KMO-membranes, 10 μM Kynurenine, 200 μM NADPH, values exemplary only; for IC50: read-out: median pIC50 (converted)
From the text: KMO inhibition can be determined by MS Rapidfire assay performed on the human cloned enzyme as described herein.
L-Kynurenine (Kyn), 3-hydroxy-DL-kynurenine (3-HK), β-Nicotinamide adenine dinucleotide 2′-phosphate reduced tetrasodium salt hydrate (NADPH), 4-(2-hydroxyethyl)piperazine-1-ethanesulfonic acid (Hepes), DL-dithiothreitol (DTT), ethylenediaminetetraacetic acid (EDTA), CHAPS and trifluoroacetic acid (TFA) were purchased from Sigma-Aldrich Ltd. (Gillingham, Dorset, UK). HPLC-grade acetonitrile and formic acid were supplied by Fisher Scientific (Loughborough, UK).
Full length human KMO was amplified by PCR from pcDNA5/FRT/V5-His-TOPO/hKMO (vector supplied by the University of Edinburgh) and cloned into pGEX6P-1 (GE Healthcare) using BamH1 and Sal1 restriction sites. DNA encoding the N-terminal glutathione-S-transferase (GST) tag, followed by a Pre-Scission protease cleavage site, and the full length KMO was amplified by PCR from pGEX6P-1-KMO and cloned into pFastbac1 (Invitrogen) using Xbal and EcoR1 restriction sites.
pFastbac1 GST-KMO was transposed into the baculovirus genome using the BAC-to-BAC technology (Invitrogen) and bacmid DNA was prepared and transfected into Spodoptera frugiperda (Sf9) cells using Cellfectin II (Invitrogen).
A P1 virus stock was generated from a single clone and used to infect 3× 1.5 L cultures of Sf9 cells in 3 L Corning Fernbach flasks. […] Cells were harvested after 48 hours and disrupted by blending in 50 mM Hepes, pH 7.4, 1 mM EDTA buffer containing protease inhibitors. A low speed spin (400 g) was used to remove cell debris, followed by a high speed spin (75 000 g) to pellet the membranes. The membranes were purified in a discontinuous sucrose density gradient by re-suspending in 10% (w/v) sucrose and layering over 40% (w/v) sucrose, both in the above buffer. This was centrifuged at 150 000 g and the purified membranes were taken from the interface, collected by centrifugation at 100 000 g, resuspended in buffer and aliquoted for storage at −80° C.
11 point, 3-fold serial dilutions of test compounds were prepared in DMSO and 100 nL of these solutions were dispensed into 384-well V-base polypropylene plates (Greiner Bio-one, Stonehouse, UK) using an Echo 555 acoustic dispenser (Labcyte, Sunnyvale, Calif.). This gave a final assay concentration range between 100 μM and 1.7 nM in 10 μL final assay volume (see below). 100 nL DMSO was dispensed into columns 6 and 18 for high and low controls, respectively, with prior inactivation of the enzyme in column 18 by pre-dispense of 30 μL of 0.5% (v/v) TFA.
Conditions for the assay of human KMO using isolated KMO-membranes were 50 mM Hepes, pH 7.5, 2 mM DTT, 1 mM EDTA, 100 μM CHAPS, 200 μM NADPH, 10 μM Kynurenine and 8 μg/ml KMO-membranes in a total reaction volume of 10 μL.
Assays were performed by initially dispensing 5 μL of a 2× Enzyme solution (16 μg/ml KMO-membranes in 50 mM Hepes, pH 7.5, 2 mM DTT, 2 mM EDTA, 200 μM CHAPS) into plates containing 100 nL compounds and incubating for 10 min at ambient temperature. Reactions were initiated by addition of 5 μL of 2× Substrate solution (400 μM NADPH, 20 μM Kynurenine in 50 mM Hepes, pH 7.5, 2 mM DTT) and incubated for 2 h at room temperature before quenching the reaction with 30 μL of 0.5% (v/v) TFA. Plates were centrifuged at 2500 rpm for 10 min before analysis. All additions were made using a Multidrop Combi dispenser (Thermo Fisher Scientific).
Quenched assay plates were transferred to a high-throughput RapidFire200 integrated autosampler/solid-phase extraction (SPE) system (Agilent Technologies, Wakefield, Mass.).

T1 sequence (O15229 whole entry): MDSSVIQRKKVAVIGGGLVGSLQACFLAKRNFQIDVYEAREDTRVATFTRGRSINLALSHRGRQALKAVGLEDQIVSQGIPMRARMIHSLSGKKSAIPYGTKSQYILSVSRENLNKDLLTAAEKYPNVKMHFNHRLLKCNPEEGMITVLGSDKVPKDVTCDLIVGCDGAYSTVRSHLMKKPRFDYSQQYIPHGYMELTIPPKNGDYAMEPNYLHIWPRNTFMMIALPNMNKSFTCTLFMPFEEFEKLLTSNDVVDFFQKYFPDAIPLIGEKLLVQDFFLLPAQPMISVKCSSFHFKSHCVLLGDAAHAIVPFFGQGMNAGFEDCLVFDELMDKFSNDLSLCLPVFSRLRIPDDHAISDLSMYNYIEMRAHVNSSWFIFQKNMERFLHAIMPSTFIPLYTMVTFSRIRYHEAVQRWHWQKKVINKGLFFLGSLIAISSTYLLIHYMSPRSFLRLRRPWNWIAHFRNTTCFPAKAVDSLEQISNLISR

| Structure (SMILES) | IC50 | median pIC50 |
| --- | --- | --- |
| CCC(Oc1cc2onc(CCC(=O)O)c2cc1Cl)c1ccc(Cl)cn1 (single isomer, unassigned) [Example 27, 3-(5-chloro-6-(1-(5-chloropyridin-2-yl)propoxy)benzo[d]isoxazol-3-yl)propanoic acid] | ≤ 10 nM | – |
| Cc1ncc(C(C)Oc2cc3onc(CCC(=O)O)c3cc2Cl)o1 (single isomer, unassigned) [Example 35, 3-{5-Chloro-6-[1-(2-methyl-1,3-oxazol-5-yl)ethoxy]-1,2-benzoxazol-3-yl}propanoic acid] | 10 nM | – |
| CC(Oc1cc2onc(CCC(=O)O)c2cc1Cl)c1ncc(Cl)cn1 (single isomer, unassigned) [Example 37, 3-{5-Chloro-6-[1-(5-chloropyrimidin-2-yl)ethoxy]-1,2-benzoxazol-3-yl}propanoic acid] | 10 nM | – |
| Cc1cnc(C(C)Oc2cc3onc(CCC(=O)O)c3cc2Cl)nc1 (single isomer, unassigned) [Example 39, 3-{5-Chloro-6-[1-(5-methylpyrimidin-2-yl)ethoxy]-1,2-benzoxazol-3-yl}propanoic acid] | 10 nM | – |
| CC[C@H](Oc1cc2onc(CCC(=O)O)c2cc1Cl)c1ncccn1 (single isomer, unassigned) [Example 43] | 10 nM | – |
| CCC(Oc1cc2onc(CCC(=O)O)c2cc1Cl)c1ccc(C)nn1 (single isomer, unassigned) [Example 47, 3-{5-Chloro-6-[1-(6-methylpyridazin-3-yl)propoxy]-1,2-benzoxazol-3-yl}propanoic acid] | 10 nM | – |
| CCC(Oc1cc2onc(CCC(=O)O)c2cc1Cl)c1ncc(C)cn1 (single isomer, unassigned) [Example 49, 3-{5-Chloro-6-[1-(5-methylpyrimidin-2-yl)propoxy]-1,2-benzoxazol-3-yl}propanoic acid] | 10 nM | – |
| CCC(Oc1cc2onc(CCC(=O)O)c2cc1Cl)c1ncc(Cl)cn1 (single isomer, unassigned) [Example 51, 3-{5-Chloro-6-[1-(5-chloropyrimidin-2-yl)propoxy]-1,2-benzoxazol-3-yl}propanoic acid] | 10 nM | – |
| O=C(O)CCc1noc2cc(OCc3ccccn3)c(Cl)cc12 [Example 2, 2-amino-2-(hydroxymethyl)propane-1,3-diol 3-(5-chloro-6-(pyridin-2-ylmethoxy)benzo[d]isoxazol-3-yl)propanoate] | ≤ 10 nM | – |
| O=C(O)CCc1noc2cc(OCc3ccc(Cl)cn3)c(Cl)cc12 [Example 7, 2-amino-2-(hydroxymethyl)propane-1,3-diol 3-(5-chloro-6-((5-chloropyridin-2-yl)methoxy)benzo[d]isoxazol-3-yl)propanoate] | 2.51 nM | – |
| O=C(O)CCc1noc2cc(OCc3cccnn3)c(Cl)cc12 [Example 13, 3-(5-chloro-6-(pyridazin-3-ylmethoxy)benzo[d]isoxazol-3-yl)propanoic acid] | ≤ 10 nM | – |

Results, then the compound that gave them:

| IC50 | median pIC50 | Structure (SMILES) |
| --- | --- | --- |
| ≤ 10 nM | – | CC(Oc1cc2onc(CCC(=O)O)c2cc1Cl)c1cccnn1 (single isomer, unassigned) [Example 22, 3-(5-chloro-6-(1-(pyridazin-3-yl)ethoxy)benzo[d]isoxazol-3-yl)propanoic acid] |
| ≤ 10 nM | – | CCC(Oc1cc2onc(CCC(=O)O)c2cc1Cl)c1ccc(C)cn1 (single isomer, unassigned) [Example 23, 3-(5-chloro-6-(1-(5-methylpyridin-2-yl)propoxy)benzo[d]isoxazol-3-yl)propanoic acid] |
| ≤ 10 nM and 3.98 nM | – | CCC(Oc1cc2onc(CCC(=O)O)c2cc1Cl)c1ccccn1 (single isomer, unassigned) [Example 25, 3-(5-chloro-6-(1-(pyridin-2-yl)propoxy)benzo[d]isoxazol-3-yl)propanoic acid] |
| 10 nM | – | CCc1ccc(C(C)Oc2cc3onc(CCC(=O)O)c3cc2Cl)nc1 (single isomer, unassigned) [Example 29, 3-{5-Chloro-6-[1-(5-ethylpyridin-2-yl)ethoxy]-1,2-benzoxazol-3-yl}propanoic acid] |
| 10 nM | – | CCc1cccc(C(C)Oc2cc3onc(CCC(=O)O)c3cc2Cl)n1 (single isomer, unassigned) [Example 31, 3-{5-Chloro-6-[1-(6-ethylpyridin-2-yl)ethoxy]-1,2-benzoxazol-3-yl}propanoic acid] |
| 10 nM | – | CCc1coc(C(C)Oc2cc3onc(CCC(=O)O)c3cc2Cl)n1 (single isomer, unassigned) [Example 41, 3-{5-Chloro-6-[1-(4-ethyl-1,3-oxazol-2-yl)ethoxy]-1,2-benzoxazol-3-yl}propanoic acid] |
| 10 nM | – | CCC(Oc1cc2onc(CCC(=O)O)c2cc1Cl)c1cccnn1 (single isomer, unassigned) [Example 46, 3-{5-Chloro-6-[1-(pyridazin-3-yl)propoxy]-1,2-benzoxazol-3-yl}propanoic acid] |
| ≤ 10 nM | 8.7 | Cc1ccc([C@@H](C)Oc2cc3onc(CCC(=O)O)c3cc2Cl)nn1 [Example 20, (R)-3-(5-chloro-6-(1-(6-methylpyridazin-3-yl)ethoxy)benzo[d]isoxazol-3-yl)propanoic acid] |
